Results taken from patent US11725010B2, “Polyheterocyclic compounds as METTL3 inhibitors” (Storm Therapeutics Limited, priority 2019, dated 2023).
Read-outs that look alike come from different tables or passages of the source.

Tests used:
[1] = test system: KASUMI-1 cells; assay: Kasumi cell assay (CellTiter-Glo cell growth); format: cell-based; conditions: Homo sapiens
Experimental: Upon treatment, Kasumil cells were incubated for 10 min at RT with the CellTiter-Glo reagent (G7571, Promega). Measurement of the luminescence signal was performed on a microplate reader (Ensight, PerkinElmer).

[2] = test system: Caov-3 cells; assay: Caov3 CTG proliferation assay; format: cell-based; conditions: Homo sapiens
Experimental: CTG Assay (Caov3 Cell Line)
Upon treatment, Coav-3 cells were incubated for 10 min at RT with the CellTiter-Glo reagent (G7571, Promega). Measurement of the luminescence signal was performed on a microplate reader (Ensight, PerkinElmer).
Caov3 CTG Assay—Proliferation Assay

[3] = molecular target: METTL3/14 (Homo sapiens (Human), UniProt Q86U44)
Chain of METTL3/14 (Q86U44 whole entry): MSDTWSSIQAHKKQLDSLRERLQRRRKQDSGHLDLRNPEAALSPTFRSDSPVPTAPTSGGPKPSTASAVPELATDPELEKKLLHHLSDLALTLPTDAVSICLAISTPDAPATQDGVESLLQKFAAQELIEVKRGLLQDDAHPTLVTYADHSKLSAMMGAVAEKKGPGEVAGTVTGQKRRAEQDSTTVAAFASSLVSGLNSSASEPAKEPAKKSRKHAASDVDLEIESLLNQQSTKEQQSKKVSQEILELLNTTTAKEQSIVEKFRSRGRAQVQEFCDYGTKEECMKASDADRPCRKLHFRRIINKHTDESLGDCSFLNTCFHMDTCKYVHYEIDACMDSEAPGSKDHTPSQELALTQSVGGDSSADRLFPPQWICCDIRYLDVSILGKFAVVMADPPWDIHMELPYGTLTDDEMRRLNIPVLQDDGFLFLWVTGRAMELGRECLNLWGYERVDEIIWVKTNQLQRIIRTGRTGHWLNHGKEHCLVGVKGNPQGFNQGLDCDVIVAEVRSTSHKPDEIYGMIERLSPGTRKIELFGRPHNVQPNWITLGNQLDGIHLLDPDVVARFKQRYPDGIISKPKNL
Chain of METTL3/14 (Q9HCE5 whole entry partner): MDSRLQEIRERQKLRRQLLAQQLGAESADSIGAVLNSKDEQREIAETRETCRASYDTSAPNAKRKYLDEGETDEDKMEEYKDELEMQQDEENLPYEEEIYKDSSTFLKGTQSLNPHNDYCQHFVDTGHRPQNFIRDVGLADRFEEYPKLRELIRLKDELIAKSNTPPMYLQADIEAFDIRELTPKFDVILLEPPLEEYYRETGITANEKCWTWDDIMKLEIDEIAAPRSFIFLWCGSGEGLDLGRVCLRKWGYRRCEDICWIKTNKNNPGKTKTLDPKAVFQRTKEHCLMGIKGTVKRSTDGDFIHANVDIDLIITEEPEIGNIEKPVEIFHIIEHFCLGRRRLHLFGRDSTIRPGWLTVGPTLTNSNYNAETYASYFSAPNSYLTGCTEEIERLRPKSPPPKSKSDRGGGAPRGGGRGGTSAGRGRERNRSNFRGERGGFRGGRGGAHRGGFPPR

[4] = Kasumi 1, treated for 120 hours, CellTiter-Glo luminescence, read-out: KASUMI1 cells IC50
[5] = Caov-3, treated for 120 hours, CellTiter-Glo luminescence, read-out: Caov3 cells IC50

SMILES	IC50 [1, 4]	IC50 [2, 5]	IC50 [3]	IC50 ([1]; Kasumi 1, 120 h, read-out: KASUMI1 cells IC50 nM)	IC50 ([2]; Caov-3, 120 h, read-out: Caov3 cells IC50 nM)
O=C(NCc1ccc2cc(CNCC34CC(F)(C3)C4)[nH]c2c1)c1cc(=O)n2ccccc2n1 [Compound 23, N-[(2-{[({3-fluorobicyclo[1.1.1]pentan-1-yl}methyl)amino]methyl}-1H-indol-6-yl)methyl]-4-oxo-4H-pyrido[1,2-a]pyrimidine-2-carboxamide]	263 nM	80.1 nM	6.1 nM	–	–
O=C(NCc1ccc2cc(CN[C@H]3CCC[C@H]3O)[nH]c2c1)c1cc(=O)n2ccccc2n1 [Compound 38, N-{[2-({[(1S,2R)-2-hydroxycyclopentyl]amino}methyl)-1H-indol-6-yl]methyl}-4-oxo-4H-pyrido[1,2-a]pyrimidine-2-carboxamide]	–	–	6.1 nM	2310 nM	458 nM
O=C(NCc1cc2[nH]c(CNCC3CCC3)cc2cc1F)c1cc(=O)n2ccccc2n1 [Compound 41, N-[[2-[(cyclobutylmethylamino)methyl]-5-fluoro-1H-indol-6-yl]methyl]-4-oxo-pyrido[1,2-a]pyrimidine-2-carboxamide]	309 nM	192 nM	6.1 nM	–	–
O=C(NCc1ccc2cc(CN3CC4(CCC4)C3)[nH]c2c1)c1cc(=O)n2ccccc2n1 [Compound 67, N-[[2-(2-azaspiro[3.3]heptanean-2-ylmethyl)-1H-indol-6-yl]methyl]-4-oxo-pyrido[1,2-a]pyrimidine-2-carboxamide]	1720 nM	482 nM	6.1 nM	–	–
O=C(NCc1ccc2cc(CNCC34CCC(C3)C4)[nH]c2c1)c1cc(=O)n2ccccc2n1 [Compound 76, N-[(2-{[({bicyclo[2.1.1]hexan-1-yl}methyl)amino]methyl}-1H-indol-6-yl)methyl]-4-oxo-4H-pyrido[1,2-a]pyrimidine-2-carboxamide]	698 nM	242 nM	6.1 nM	–	–
CC12CC(CNCc3cc4ccc(CNC(=O)c5cc(=O)n6ccccc6n5)cc4[nH]3)(C1)C2 [Compound 77, N-[(2-{[({3-methylbicyclo[1.1.1]pentan-1-yl}methyl)amino]methyl}-1H-indol-6-yl)methyl]-4-oxo-4H-pyrido[1,2-a]pyrimidine-2-carboxamide]	1760 nM	701 nM	6.1 nM	–	–
O=C(NCc1ccc2cc(CN3CC4(CCCC4)C3)[nH]c2c1)c1cc(=O)n2ccccc2n1 [Compound 81, N-{[2-({2-azaspiro[3.4]octan-2-yl}methyl)-1H-indol-6-yl]methyl}-4-oxo-4H-pyrido[1,2-a]pyrimidine-2-carboxamide]	1030 nM	564 nM	6.1 nM	–	–
O=C(NCc1ccc2cc(CN3CC4(CCCCC4)C3)[nH]c2c1)c1cc(=O)n2ccccc2n1 [Compound 90, N-{[2-({2-azaspiro[3.5]nonan-2-yl}methyl)-1H-indol-6-yl]methyl}-4-oxo-4H-pyrido[1,2-a]pyrimidine-2-carboxamide]	1250 nM	602 nM	6.1 nM	–	–
CC1(C)CCN(Cc2cc3ccc(CNC(=O)c4cc(=O)n5ccccc5n4)cc3[nH]2)C1 [Compound 92, N-({2-[(3,3-dimethylpyrrolidin-1-yl)methyl]-1H-indol-6-yl}methyl)-4-oxo-4H-pyrido[1,2-a]pyrimidine-2-carboxamide]	1610 nM	598 nM	6.1 nM	–	–
O=C(NCc1ccc2cc(CN3CC4(CC(F)C4)C3)[nH]c2c1)c1cc(=O)n2ccccc2n1 [Compound 93, N-{[2-({6-fluoro-2-azaspiro[3.3]heptanean-2-yl}methyl)-1H-indol-6-yl]methyl}-4-oxo-4H-pyrido[1,2-a]pyrimidine-2-carboxamide]	1330 nM	453 nM	6.1 nM	–	–
O=C(NCc1ccc2cc(CN3CC4(C3)CC(F)(F)C4)[nH]c2c1)c1cc(=O)n2ccccc2n1 [Compound 94, N-{[2-({6,6-difluoro-2-azaspiro[3.3]heptanean-2-yl}methyl)-1H-indol-6-yl]methyl}-4-oxo-4H-pyrido[1,2-a]pyrimidine-2-carboxamide]	2240 nM	681 nM	6.1 nM	–	–
O=C(NCc1ccc2cc(CN3CC(C4CCC4)C3)[nH]c2c1)c1cc(=O)n2ccccc2n1 [Compound 95, N-({2-[(3-cyclobutylazetidin-1-yl)methyl]-1H-indol-6-yl}methyl)-4-oxo-4H-pyrido[1,2-a]pyrimidine-2-carboxamide]	3190 nM	960 nM	6.1 nM	–	–
CC(C)(C)C1CN(Cc2cc3ccc(CNC(=O)c4cc(=O)n5ccccc5n4)cc3[nH]2)C1 [Compound 97, N-({2-[(3-tert-butylazetidin-1-yl)methyl]-1H-indol-6-yl}methyl)-4-oxo-4H-pyrido[1,2-a]pyrimidine-2-carboxamide]	3090 nM	1020 nM	–	–	–
CC1CC(CNCc2cc3ccc(CNC(=O)c4cc(=O)n5ccccc5n4)cc3[nH]2)C1 (centres unmarked) [Compound 99, N-{[2-({[(3-methylcyclobutyl)methyl]amino}methyl)-1H-indol-6-yl]methyl}-4-oxo-4H-pyrido[1,2-a]pyrimidine-2-carboxamide]	3260 nM	1090 nM	–	–	–
CC(C)(C)C(C)(C)NCc1cc2ccc(CNC(=O)c3cc(=O)n4ccccc4n3)cc2[nH]1 [Compound 100, 4-oxo-N-[(2-{[(2,3,3-trimethylbutan-2-yl)amino]methyl}-1H-indol-6-yl)methyl]-4H-pyrido[1,2-a]pyrimidine-2-carboxamide]	2540 nM	685 nM	–	–	–
CCC1(CC)CN(Cc2cc3ccc(CNC(=O)c4cc(=O)n5ccccc5n4)cc3[nH]2)C1 [Compound 102, N-({2-[(3,3-diethylazetidin-1-yl)methyl]-1H-indol-6-yl}methyl)-4-oxo-4H-pyrido[1,2-a]pyrimidine-2-carboxamide]	525 nM	230 nM	6.1 nM	–	–
O=C(NCc1ccc2cc(CN3CCC4(CCC4)C3)[nH]c2c1)c1cc(=O)n2ccccc2n1 [Compound 104, N-{[2-({6-azaspiro[3.4]octan-6-yl}methyl)-1H-indol-6-yl]methyl}-4-oxo-4H-pyrido[1,2-a]pyrimidine-2-carboxamide]	661 nM	237 nM	6.1 nM	–	–
O=C(NCc1ccc2cc(CN3CC4CCCC4C3)[nH]c2c1)c1cc(=O)n2ccccc2n1 (centres unmarked) [Compound 106, N-{[2-({octahydrocyclopenta[c]pyrrol-2-yl}methyl)-1H-indol-6-yl]methyl}-4-oxo-4H-pyrido[1,2-a]pyrimidine-2-carboxamide]	1830 nM	911 nM	6.1 nM	–	–
O=C(NCc1ccc2cc(CNCC3CC34CC4)[nH]c2c1)c1cc(=O)n2ccccc2n1 (centres unmarked) [Compound 109, 4-oxo-N-[(2-{[({spiro[2.2]pentan-1-yl}methyl)amino]methyl}-1H-indol-6-yl)methyl]-4H-pyrido[1,2-a]pyrimidine-2-carboxamide]	1470 nM	608 nM	6.1 nM	–	–
O=C(NCc1ccc2cc(CNC3CC34CCC4)[nH]c2c1)c1cc(=O)n2ccccc2n1 (centres unmarked) [Compound 110, 4-oxo-N-({2-[({spiro[2.3]hexan-1-yl}amino)methyl]-1H-indol-6-yl}methyl)-4H-pyrido[1,2-a]pyrimidine-2-carboxamide]	1140 nM	412 nM	6.1 nM	–	–
O=C(NCc1ccc2cc(CN3CCC4(CCCC4)C3)[nH]c2c1)c1cc(=O)n2ccccc2n1 [Compound 113, N-{[2-({2-azaspiro[4.4]nonan-2-yl}methyl)-1H-indol-6-yl]methyl}-4-oxo-4H-pyrido[1,2-a]pyrimidine-2-carboxamide]	1650 nM	575 nM	6.1 nM	–	–
O=C(NCc1ccc2cc(CNC3(C4CCC4)CC3)[nH]c2c1)c1cc(=O)n2ccccc2n1 [Compound 116, N-[(2-{[(1-cyclobutylcyclopropyl)amino]methyl}-1H-indol-6-yl)methyl]-4-oxo-4H-pyrido[1,2-a]pyrimidine-2-carboxamide]	5070 nM	–	6.1 nM	–	–
CC1(CNCc2cc3ccc(CNC(=O)c4cc(=O)n5ccccc5n4)cc3[nH]2)CCC1 [Compound 117, N-{[2-({[(1-methylcyclobutyl)methyl]amino}methyl)-1H-indol-6-yl]methyl}-4-oxo-4H-pyrido[1,2-a]pyrimidine-2-carboxamide]	1730 nM	502 nM	6.1 nM	–	–
CC(NCc1cc2ccc(CNC(=O)c3cc(=O)n4ccccc4n3)cc2[nH]1)C12CC(F)(C1)C2 (centres unmarked) [Compound 120, N-[(2-{[(1-{3-fluorobicyclo[1.1.1]pentan-1-yl}ethyl)amino]methyl}-1H-indol-6-yl)methyl]-4-oxo-4H-pyrido[1,2-a]pyrimidine-2-carboxamide]	447 nM	203 nM	6.1 nM	–	–
COc1cc(-c2cn(Cc3ccc4cc(CNCC5CCC5)[nH]c4c3)nn2)c2cncn2c1 [Example 63, N-(cyclobutylmethyl)-1-[6-[[4-(6-methoxyimidazo[1,5-a]pyridin-8-yl)triazol-1-yl]methyl]-1H-indol-2-yl]methanamine]	869 nM	257 nM	–	–	–
COc1cnc(C#N)c(-c2cn(Cc3ccc4cc(CNCC5CCC5)[nH]c4c3)nn2)c1 [Example 151, 3-{1-[(2-{[(Cyclobutylmethyl)amino]methyl}-1H-indol-6-yl)methyl]-1H-1,2,3-triazol-4-yl}-5-methoxy-2-pyridinecarbonitrile]	7220 nM	9060 nM	–	–	–
N#Cc1ncc(F)cc1-c1cn(Cc2ccc3cc(CNCC4CCC4)[nH]c3c2)nn1 [Example 152, 3-(1-((2-(((cyclobutylmethyl)amino)methyl)-1H-indol-6-yl)methyl)-1H-1,2,3-triazol-4-yl)-5-fluoropicolinonitrile]	9960 nM	5430 nM	–	–	–
